From US11185544B2, “Formulations of 4-methyl-5-(pyrazin-2-yl)-3H-l,2-dithiole-3-thione, taste-modified formulations, and methods of making and using same” (ST IP Holding AG, priority 2016, dated 2021)

Key:
[1] = system: reactive oxygen species (ROS) in HGEPp cells; conditions: H2O2-treated cells, 0.3 mM for 4 h
Description: 2. measure the effect of recrystallized oltipraz amd formulated oltipraz on hydroxyl, peroxyl and other reactive oxygen species within HGEPp cells, using Cell Biolabs' OxiSelect™ Intracellular ROS Assay Kit. This assay employs the cell-permeable fluorogenic probe 2′,7′-dichlorodihydrofluorescein diacetate (DCFH-DA) which diffuses into cells and is deacetylated by cellular esterases to a nonfluorescent DCFH which is then rapidly oxidized to highly fluorescent 2′,7′-dichlorodihydrofluorescein (DCF) by ROS.
Pooled primary HGEPps were propagated in CnT-Prime epithelial culture medium provided by CellnTec on 100 mm petri dishes coated with 30 mg/ml Type I rat tail collagen (BD Biosciences) diluted in Dulbecco's phosphate-buffered saline (DPBS). […] The cells were harvested when they reached 70-90% confluency as observed by light microscopy. For routine cultivation, the medium was changed every 3 days. […]
Oxidative Stress Measurement ROS Assay (OxiSelect Kit) • 1. […] Once the HGEPp cells were cultured and ready on a microplate, the media was removed from all the wells and discarded. […] Fluorescence was read on a Fluorescence Plate Reader after 1 hour. […] Transferred 150 μL of the mixture to a fresh 24-well plate for fluorescence measurements at 530 nm. […]
Intracellular ROS was measured using a Spectramax M3 microplate reader.

[2] = system: primary human gingival epithelial cells (HGEPp); assay: cells; conditions: Epithelial cell, 4 h, read-out: IC50 of H2O2 in HGEPp cells
Protocol: Pooled primary HGEPps were propagated in CnT-Prime epithelial culture medium provided by CellnTec on 100 mm petri dishes coated with 30 mg/ml Type I rat tail collagen (BD Biosciences) diluted in Dulbecco's phosphate-buffered saline (DPBS). […] The cells were harvested when they reached 70-90% confluency as observed by light microscopy. For routine cultivation, the medium was changed every 3 days. For both the cell viability and ROS assays, the cells from passages 3-7 were seeded at 5×0 3, 2.5×10 4, 5×0 4 cells/cm 2 density to grow cell monolayers in 24-well flat-bottomed tissue culture plates and acclimated overnight at 37° C. […]
Cell Survival Assay (TACS MTT Kit) • 1. Plate cell concentration was selected to be 6.25×10^5/ml to yield an OD absorbance within the linear portion of the control curve. • 2. Once the HGEPp cells were cultured and ready on the microplate, the media was removed from all the wells and discarded. […] Removed the plate cover and measured the absorbance of the wells, including the blanks at 570 nm. • 8. Determined the average values from triplicate readings after subtracting the average value for the blanks.
HGEPp cells were exposed to different concentrations of H2O2 for 4 h to examine H2O2-induced oxidative stress. The cells were exposed to 0-0.6 mM H2O2 for 4 h and cell viability was evaluated using the TACS MTT Cell Proliferation Assay Kit. […]

OO [Sample H2O2, hydrogen peroxide]
ROS levels compared to normal control cells (100%) [1]: 128%
IC50 [2]: 300 µM
